For assay [1], the target named is Putative heat shock protein HSP 90-beta 2 (Homo sapiens, UniProt Q58FF8).
In assay [2] the target is Tyrosine-protein kinase CSK (Homo sapiens, UniProt P41240).
Assay [3] concerns the target Tyrosine-protein kinase Fyn (Homo sapiens, UniProt P06241).
Assay [4] addresses Ribosomal protein S6 kinase alpha-4 (Homo sapiens, UniProt O75676).
Assay [5] deals with T1, Serine/threonine-protein kinase A-Raf (Homo sapiens, UniProt P10398).
T1 sequence (P10398 whole entry): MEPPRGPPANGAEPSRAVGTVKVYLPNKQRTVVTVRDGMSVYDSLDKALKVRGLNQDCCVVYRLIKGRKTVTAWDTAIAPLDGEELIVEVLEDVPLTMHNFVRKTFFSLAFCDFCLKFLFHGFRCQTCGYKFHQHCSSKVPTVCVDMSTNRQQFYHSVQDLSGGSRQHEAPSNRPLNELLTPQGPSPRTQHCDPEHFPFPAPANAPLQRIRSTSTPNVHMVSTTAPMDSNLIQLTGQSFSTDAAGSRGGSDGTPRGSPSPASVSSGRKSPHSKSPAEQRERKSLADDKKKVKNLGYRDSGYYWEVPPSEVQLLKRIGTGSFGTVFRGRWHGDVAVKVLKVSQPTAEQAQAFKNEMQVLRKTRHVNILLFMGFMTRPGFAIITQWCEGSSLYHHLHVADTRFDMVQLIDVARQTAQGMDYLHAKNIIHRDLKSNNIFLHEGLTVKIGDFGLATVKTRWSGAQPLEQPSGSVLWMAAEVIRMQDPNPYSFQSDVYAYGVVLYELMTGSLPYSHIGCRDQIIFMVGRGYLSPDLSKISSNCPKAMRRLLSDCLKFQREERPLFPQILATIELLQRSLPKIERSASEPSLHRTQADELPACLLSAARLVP

The target of assay [6] is Mitogen-activated protein kinase kinase kinase 1 (Homo sapiens, UniProt Q13233).
The target in assay [7] is 5'-AMP-activated protein kinase catalytic subunit alpha-1 (Homo sapiens, UniProt Q13131).
Assay [8] addresses TRAF2 and NCK-interacting protein kinase (Homo sapiens, UniProt Q9UKE5).
Assay [9] has as its target cAMP-dependent protein kinase catalytic subunit alpha (Homo sapiens, UniProt P17612).
The target in assay [10] is T2, Serine/threonine-protein kinase TAO1 (Homo sapiens, UniProt Q7L7X3).
T2 sequence (Q7L7X3 whole entry): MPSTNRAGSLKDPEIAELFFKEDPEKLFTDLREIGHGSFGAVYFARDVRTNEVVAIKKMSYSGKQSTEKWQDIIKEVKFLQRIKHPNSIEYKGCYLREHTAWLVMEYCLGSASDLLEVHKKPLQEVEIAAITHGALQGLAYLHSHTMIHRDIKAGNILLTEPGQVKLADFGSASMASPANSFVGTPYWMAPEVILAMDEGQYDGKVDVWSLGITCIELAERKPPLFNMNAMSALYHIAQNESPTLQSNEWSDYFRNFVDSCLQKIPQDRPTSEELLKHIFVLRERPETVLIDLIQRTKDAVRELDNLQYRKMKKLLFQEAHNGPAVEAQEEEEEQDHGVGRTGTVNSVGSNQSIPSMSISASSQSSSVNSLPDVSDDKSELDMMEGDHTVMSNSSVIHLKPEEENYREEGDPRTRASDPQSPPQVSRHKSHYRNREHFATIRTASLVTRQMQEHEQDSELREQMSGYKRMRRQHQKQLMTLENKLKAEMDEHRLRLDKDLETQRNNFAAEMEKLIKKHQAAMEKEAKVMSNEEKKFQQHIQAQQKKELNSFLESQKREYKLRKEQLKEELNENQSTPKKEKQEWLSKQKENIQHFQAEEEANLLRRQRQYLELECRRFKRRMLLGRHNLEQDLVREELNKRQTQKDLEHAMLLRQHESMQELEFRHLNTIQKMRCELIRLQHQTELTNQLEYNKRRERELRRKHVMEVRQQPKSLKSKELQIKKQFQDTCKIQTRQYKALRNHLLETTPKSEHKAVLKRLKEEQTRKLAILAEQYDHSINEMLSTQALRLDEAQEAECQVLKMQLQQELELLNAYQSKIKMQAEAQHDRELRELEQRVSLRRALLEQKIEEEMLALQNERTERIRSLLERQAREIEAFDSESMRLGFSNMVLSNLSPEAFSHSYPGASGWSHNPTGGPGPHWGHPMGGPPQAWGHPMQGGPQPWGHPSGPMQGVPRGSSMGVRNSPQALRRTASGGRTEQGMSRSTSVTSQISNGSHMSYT

The target in assay [11] is Deoxycytidine kinase (Homo sapiens, UniProt P27707).
Assay [12] deals with GTP-binding nuclear protein Ran (Homo sapiens, UniProt P62826).
Assay [13] has as its target T3, Activin receptor type-1B (Homo sapiens, UniProt P36896).
T3 sequence (P36896 whole entry): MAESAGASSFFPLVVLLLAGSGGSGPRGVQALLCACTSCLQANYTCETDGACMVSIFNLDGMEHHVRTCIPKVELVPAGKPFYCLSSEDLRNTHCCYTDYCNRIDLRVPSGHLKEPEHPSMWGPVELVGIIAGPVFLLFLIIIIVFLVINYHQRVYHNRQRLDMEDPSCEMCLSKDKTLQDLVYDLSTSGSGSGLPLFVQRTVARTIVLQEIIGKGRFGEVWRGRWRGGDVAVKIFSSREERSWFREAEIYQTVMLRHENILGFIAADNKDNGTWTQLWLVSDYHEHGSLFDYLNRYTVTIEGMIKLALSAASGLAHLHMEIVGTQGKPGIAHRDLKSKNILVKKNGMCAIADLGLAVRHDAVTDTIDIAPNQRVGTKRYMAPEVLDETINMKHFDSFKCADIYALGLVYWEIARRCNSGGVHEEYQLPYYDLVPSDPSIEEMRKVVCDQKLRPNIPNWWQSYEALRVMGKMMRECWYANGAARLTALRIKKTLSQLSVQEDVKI

Active and inactive are the calls of the source. Cut-off read from the data, not from the text of the source, for most assays here: actives have a measured Kd and inactives only a lower limit.

The source of these data is ChEMBL document CHEMBL3991601, “The target landscape of clinical kinase drugs” (Science, 2017).

In general, Kd refers to the equilibrium constant for the complex coming apart.
Note: in the data inactive means no Kd found up to 30 µM.

Mitogen-activated protein kinase kinase kinase 1, sequence (Q13233 whole entry): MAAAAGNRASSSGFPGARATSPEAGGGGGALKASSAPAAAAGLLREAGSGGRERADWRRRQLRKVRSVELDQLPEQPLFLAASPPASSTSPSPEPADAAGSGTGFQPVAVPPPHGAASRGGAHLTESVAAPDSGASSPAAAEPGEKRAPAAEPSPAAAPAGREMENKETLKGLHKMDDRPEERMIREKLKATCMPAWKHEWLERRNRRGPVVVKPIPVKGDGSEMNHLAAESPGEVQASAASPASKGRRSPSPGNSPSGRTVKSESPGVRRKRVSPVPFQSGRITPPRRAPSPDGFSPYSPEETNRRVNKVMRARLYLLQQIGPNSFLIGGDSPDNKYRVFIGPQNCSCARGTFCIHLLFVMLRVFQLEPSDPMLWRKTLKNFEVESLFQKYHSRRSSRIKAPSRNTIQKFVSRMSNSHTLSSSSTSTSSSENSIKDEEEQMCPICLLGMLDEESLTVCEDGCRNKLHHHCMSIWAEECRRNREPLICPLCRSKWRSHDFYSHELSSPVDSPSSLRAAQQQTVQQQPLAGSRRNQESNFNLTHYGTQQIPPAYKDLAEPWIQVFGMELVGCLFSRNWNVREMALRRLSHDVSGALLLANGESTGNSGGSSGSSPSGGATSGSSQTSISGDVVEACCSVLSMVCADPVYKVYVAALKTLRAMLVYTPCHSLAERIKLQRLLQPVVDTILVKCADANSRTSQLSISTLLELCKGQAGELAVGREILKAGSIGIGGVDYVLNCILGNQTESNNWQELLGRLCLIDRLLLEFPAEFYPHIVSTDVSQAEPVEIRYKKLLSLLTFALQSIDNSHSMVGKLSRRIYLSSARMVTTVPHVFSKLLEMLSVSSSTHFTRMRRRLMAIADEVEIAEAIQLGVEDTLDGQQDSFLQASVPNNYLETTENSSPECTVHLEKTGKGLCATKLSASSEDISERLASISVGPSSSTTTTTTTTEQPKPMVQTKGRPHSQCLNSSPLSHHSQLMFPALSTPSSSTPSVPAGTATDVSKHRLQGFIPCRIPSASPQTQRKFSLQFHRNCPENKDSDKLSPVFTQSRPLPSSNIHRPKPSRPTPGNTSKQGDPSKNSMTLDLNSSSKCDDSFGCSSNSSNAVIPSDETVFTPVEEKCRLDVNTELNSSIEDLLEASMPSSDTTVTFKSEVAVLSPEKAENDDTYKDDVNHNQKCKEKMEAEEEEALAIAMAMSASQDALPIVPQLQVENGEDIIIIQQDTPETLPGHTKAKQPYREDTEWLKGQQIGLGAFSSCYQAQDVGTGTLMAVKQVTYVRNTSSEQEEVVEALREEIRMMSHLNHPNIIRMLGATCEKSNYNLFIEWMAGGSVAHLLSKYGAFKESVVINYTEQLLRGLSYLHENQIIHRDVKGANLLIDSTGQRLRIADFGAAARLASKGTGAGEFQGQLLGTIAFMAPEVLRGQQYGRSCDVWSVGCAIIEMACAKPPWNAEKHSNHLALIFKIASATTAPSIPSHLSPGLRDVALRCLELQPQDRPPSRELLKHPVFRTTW
Deoxycytidine kinase, sequence (P27707 whole entry): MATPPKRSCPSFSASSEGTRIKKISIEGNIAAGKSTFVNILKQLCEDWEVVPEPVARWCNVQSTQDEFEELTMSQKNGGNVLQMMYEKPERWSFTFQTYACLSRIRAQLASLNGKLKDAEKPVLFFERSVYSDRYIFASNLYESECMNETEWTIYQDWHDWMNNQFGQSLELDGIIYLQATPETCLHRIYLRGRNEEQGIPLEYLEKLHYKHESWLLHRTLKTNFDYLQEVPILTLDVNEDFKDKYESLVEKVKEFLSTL
Ribosomal protein S6 kinase alpha-4, sequence (O75676 whole entry): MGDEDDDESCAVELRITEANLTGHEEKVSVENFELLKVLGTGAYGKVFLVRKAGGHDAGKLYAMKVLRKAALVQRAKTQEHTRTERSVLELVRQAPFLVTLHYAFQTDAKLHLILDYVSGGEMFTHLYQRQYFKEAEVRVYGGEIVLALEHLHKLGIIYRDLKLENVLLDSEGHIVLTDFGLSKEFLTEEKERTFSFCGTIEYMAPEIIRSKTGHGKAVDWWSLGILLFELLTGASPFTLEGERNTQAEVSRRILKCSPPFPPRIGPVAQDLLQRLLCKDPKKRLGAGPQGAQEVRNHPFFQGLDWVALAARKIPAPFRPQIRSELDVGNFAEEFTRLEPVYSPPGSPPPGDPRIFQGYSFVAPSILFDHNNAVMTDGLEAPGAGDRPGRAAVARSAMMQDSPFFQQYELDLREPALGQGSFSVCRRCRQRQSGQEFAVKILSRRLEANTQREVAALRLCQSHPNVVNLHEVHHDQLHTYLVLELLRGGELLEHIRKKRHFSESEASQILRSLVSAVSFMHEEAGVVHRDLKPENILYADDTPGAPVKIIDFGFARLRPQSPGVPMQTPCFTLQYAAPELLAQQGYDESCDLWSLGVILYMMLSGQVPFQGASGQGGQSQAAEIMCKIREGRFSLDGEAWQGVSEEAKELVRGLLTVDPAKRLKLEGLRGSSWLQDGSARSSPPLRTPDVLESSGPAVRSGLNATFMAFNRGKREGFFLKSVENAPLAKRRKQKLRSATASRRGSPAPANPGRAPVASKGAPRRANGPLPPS
5'-AMP-activated protein kinase catalytic subunit alpha-1, sequence (Q13131 whole entry): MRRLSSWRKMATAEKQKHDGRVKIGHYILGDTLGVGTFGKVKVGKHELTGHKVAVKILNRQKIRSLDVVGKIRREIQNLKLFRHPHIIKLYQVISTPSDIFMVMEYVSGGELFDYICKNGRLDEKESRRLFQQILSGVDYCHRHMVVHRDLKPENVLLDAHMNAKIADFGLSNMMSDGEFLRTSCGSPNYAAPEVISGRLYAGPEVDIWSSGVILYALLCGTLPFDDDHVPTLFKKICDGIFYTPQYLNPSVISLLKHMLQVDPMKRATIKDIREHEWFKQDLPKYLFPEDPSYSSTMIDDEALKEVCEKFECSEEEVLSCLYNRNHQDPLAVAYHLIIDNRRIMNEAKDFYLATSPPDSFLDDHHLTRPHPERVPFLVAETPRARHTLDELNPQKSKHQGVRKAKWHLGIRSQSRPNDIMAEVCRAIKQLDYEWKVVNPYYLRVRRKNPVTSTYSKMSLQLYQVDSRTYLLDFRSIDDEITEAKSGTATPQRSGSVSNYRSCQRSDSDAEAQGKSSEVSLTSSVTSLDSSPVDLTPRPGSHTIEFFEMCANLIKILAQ
Tyrosine-protein kinase Fyn, sequence (P06241 whole entry): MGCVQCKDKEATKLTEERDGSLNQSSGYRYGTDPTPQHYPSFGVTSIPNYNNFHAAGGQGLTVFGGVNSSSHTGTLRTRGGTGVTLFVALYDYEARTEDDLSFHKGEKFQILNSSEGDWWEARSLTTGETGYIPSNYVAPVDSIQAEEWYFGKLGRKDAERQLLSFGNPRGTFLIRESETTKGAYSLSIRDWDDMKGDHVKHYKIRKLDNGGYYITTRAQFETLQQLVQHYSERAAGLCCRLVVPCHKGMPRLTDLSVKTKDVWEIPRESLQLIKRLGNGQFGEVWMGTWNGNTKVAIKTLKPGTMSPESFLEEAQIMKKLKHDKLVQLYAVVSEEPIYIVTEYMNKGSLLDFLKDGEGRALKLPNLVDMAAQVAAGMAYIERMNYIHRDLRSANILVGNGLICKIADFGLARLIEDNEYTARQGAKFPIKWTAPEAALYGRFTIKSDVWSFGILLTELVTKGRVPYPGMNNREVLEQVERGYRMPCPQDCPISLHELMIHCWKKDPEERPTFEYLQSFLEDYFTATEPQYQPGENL
Putative heat shock protein HSP 90-beta 2, sequence (Q58FF8 whole entry): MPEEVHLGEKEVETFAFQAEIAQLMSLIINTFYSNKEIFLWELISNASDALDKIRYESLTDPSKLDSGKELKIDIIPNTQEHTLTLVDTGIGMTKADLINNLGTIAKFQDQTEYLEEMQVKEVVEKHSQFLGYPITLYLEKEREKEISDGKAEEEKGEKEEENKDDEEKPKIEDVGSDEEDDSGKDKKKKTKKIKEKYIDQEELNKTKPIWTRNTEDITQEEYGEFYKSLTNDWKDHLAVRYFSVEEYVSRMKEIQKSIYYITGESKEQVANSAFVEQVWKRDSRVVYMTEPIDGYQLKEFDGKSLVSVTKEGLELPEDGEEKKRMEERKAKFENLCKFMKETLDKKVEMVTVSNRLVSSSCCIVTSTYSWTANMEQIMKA
Tyrosine-protein kinase CSK, sequence (P41240 whole entry): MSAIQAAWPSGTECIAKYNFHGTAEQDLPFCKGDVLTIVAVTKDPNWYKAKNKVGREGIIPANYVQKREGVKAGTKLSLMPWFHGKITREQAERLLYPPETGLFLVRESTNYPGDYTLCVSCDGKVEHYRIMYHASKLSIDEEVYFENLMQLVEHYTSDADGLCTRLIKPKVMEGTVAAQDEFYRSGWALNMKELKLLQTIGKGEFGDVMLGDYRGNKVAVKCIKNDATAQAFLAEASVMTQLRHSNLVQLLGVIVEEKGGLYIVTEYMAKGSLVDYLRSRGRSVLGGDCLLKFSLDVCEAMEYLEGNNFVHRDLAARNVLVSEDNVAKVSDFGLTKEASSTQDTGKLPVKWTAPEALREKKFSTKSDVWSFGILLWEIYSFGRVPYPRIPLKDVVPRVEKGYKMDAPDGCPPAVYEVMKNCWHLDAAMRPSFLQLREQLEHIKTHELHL

As to `CC[C@@H]1C(=O)N(C)c2cnc(Nc3ccc(C(=O)N[C@H]4CC[C@H](N5CCN(CC6CC6)CC5)CC4)cc3OC)nc2N1C(C)C` [VOLASERTIB], the Kd in [1], in [2], in assay [3], in assay [4], in assay [5] and in [6] was > 30 µM (inactive) each time. Moreover, the Kd in assay [7], in [8], in assay [9], in assay [10], in assay [11] and in assay [12] was > 30 µM (inactive) in each case. In addition, the Kd in assay [13] was > 30 µM (inactive).

As for `Cc1cc(-c2cc(O)ccc2Cl)cc2nnc(Nc3ccc(OCCN4CCCC4)cc3)nc12`, the Kd in [1], in assay [2], in assay [3], in assay [4], in assay [5] and in assay [6] was > 30 µM (inactive) each time. Besides, the Kd in assay [7], in assay [8], in [9], in [10], in assay [11] and in assay [12] was > 30 µM (inactive) in each case. Besides, the Kd in [13] was 0.001 µM (active).

Turning to `Cc1cc2c(F)c(Oc3ncnn4cc(OC[C@@H](C)OC(=O)[C@H](C)N)c(C)c34)ccc2[nH]1` [BRIVANIB ALANINATE], the Kd in assay [1], in [2], in assay [3], in assay [4], in assay [5] and in assay [6] was > 30 µM (inactive) throughout. Also, the Kd in [7], in [8], in [9], in [10], in assay [11] and in [12] was > 30 µM (inactive) in each case. The Kd in [13] was > 30 µM (inactive).

With `CN1CCC(CNc2ccc3ncc(-c4cccc(OC(F)(F)F)c4)n3n2)CC1` [SGI-1776], the Kd in [1], in [2], in assay [3], in assay [4], in [5] and in [6] was > 30 µM (inactive) in each case. In addition, the Kd in [7], in [8], in [9], in assay [10], in assay [11] and in [12] was > 30 µM (inactive) each time. Besides, in assay [13], the Kd is > 30 µM (inactive).

For the compound `COC(=O)N[C@@H](C)CNc1nccc(-c2cn(C(C)C)nc2-c2cc(Cl)cc(NS(C)(=O)=O)c2F)n1` [ENCORAFENIB], the Kd in assay [1], in assay [2], in [3], in assay [4], in [5] and in assay [6] was > 30 µM (inactive) throughout. Moreover, the Kd in assay [7], in [8], in assay [9], in assay [10], in assay [11] and in assay [12] was > 30 µM (inactive) each time. Further, the Kd in assay [13] was > 30 µM (inactive).

For `O=c1sn(-c2cccc3ccccc23)c(=O)n1Cc1ccccc1` [TIDEGLUSIB], the Kd in assay [1], in assay [2], in assay [3], in assay [4], in assay [5] and in assay [6] was > 30 µM (inactive) throughout. For the same compound, the Kd in assay [7], in assay [8], in [9], in [10], in assay [11] and in [12] was > 30 µM (inactive) in each case. Besides, in assay [13], the Kd is > 30 µM (inactive).
